Reference: PMC4370505 (PLoS ONE, 2015)

Legend:
[1] = Single dose intravenous pharmacokinetic study in Wistar rats; assay type: in vivo; details: 10 mg/kg
Description: Pharmacokinetic studies were conducted with male Wistar rats. Rats were acclimatized and housed at 22°C under 12h light/dark cycle with free access to sterilized commercial food pellets and water in the animal research facility (Curtin University) for at least 3 days prior to experiments. All animal experiments were approved by the Animal Ethics Committee of Curtin University (Approval no: R37–10 Amendment Approval No: A47–10 and A56–10) and were performed according to the Australian Code of Practice for the care and use of animals for scientific purposes. In order to minimize pain and suffering, the dosing and bleeding procedures were conducted under anesthesia (isoflurane at 5% for the induction and 2% for the maintenance, in combination with 1.5% oxygen). At the end of the study, rats were scarified by anesthetic euthanasia using 5% isofluorane with 1.5% oxygen. […] Blood (300 μL) was collected from the tail vein at 0.08, 0.5, 1, 2 and 4 hours into EDTA coated tubes. The blood samples were immediately stored in ice and protected from light until centrifuged (12000 × g at 4°C for 10 min). […] Metabolites were identified using LC-MS/MS (Applied Biosystems, 4000 QTRAP, Toronto, Canada).
Data analysis and representation (mean ± SD) were performed with SigmaPlot version 12 (Systat Software, Inc., Chicago, IL). Pharmacokinetic analysis was performed using Kinetica Version 5.0 (Thermo Fisher Scientific, Inc., Waltham, MA). Non compartmental analysis of the plasma concentration-time data was used to estimate the area under the curve (AUC0-∞; log-linear trapezoidal method), elimination half-life (t½), apparent clearance (CL; Dose÷AUC0-∞), mean residence time (MRT) and volume of distribution (Vss; CL×MRT). Statistical analysis of pharmacokinetic parameters was performed using unpaired t-test with Graphpad Prism software (version 6.05). Pharmacokinetic parameters obtained for each group were analyzed against the resveratrol group and p values were reported.

[2] = In vitro metabolism in rat liver microsomes with UDPA; assay type: in vitro ADME; details: rat liver microsomes with UGT reaction mixture, 37°C
Description: Incubations of test substances in reaction mixtures without microsomes were used as a control. All samples were protected against light during the experiments.

[3] = cited from earlier work
[4] = parameters: method as in PMID 18501919; details: cited from earlier work
[5] = Stability of resveratrol-polymer conjugates in physiological relevant buffers; assay type: physicochemical; details: phosphate buffer 0.1M pH 7.4, 37°C
Description: Briefly, reversed phase chromatographic separation was employed for analysis with xxx column. The HPLC gradient system consisted of solvent A, buffer pH 7.0 with triethyl amine-formic acid (0.05 and 0.2% v/v in water) and solvent B, methanol. A 30 min linear gradient was programmed as follows: 0 min 5% B, 4 min 20% B, 7 min 20% B, 16 min 55% B, 18 min 55% B, 18.5 min 95% B, 23 min 95% B, 24 min 5% B. The flow rate was maintained at 1 mL/min and the injection volume was 50 μL. The HPLC analysis was performed at ambient temperature. Altech Apollo C18 150 X 4.6 mm, 5μ column was employed for seperation. This HPLC method was validated to precisely separate and quantify the trans-resveratrol in the analyte mixture. There was at least two min difference in retention times for the trans and cis isomers of resveratrol. The UV spectrum of the trans isomer is very different from the cis isomer, thus any change to the trans isomer could have been detected. Although quantification was performed using the fluorescence detector at an excitation wavelength of 320nm and emission at 400 nm, simultaneous UV chromatograms were also recorded for specificity and peak purity purposes.
A similar procedure was used to study the stability of MeO-PEG-PLAO-Succ-RSV in buffers; micelles were prepared as per section 2.8 and diluted 1:5 with buffer solutions and incubated at 37°C. […]

[6] = Behaviour of conjugates in aqueous solution (solubility / self-aggregation); assay type: physicochemical; details: up to 10 mg/mL
Description: A solution of 40 mg of MeO-PEG-PLAO-Succ-RSV conjugate in acetonitrile (2 mL) was prepared. The stock solution was diluted with water (4 mL). The acetonitrile was removed by bubbling inert nitrogen gas at room temperature in the dark. The final volume of micellar/nanoparticle dispersion was adjusted to the required volume with water. For pharmacokinetic studies, final concentration of conjugate in micelle dispersion was 10 mg/mL and for critical micellear concentration measurement, the dispersion was diluted accordingly to obtain a series concentration of conjugate in solution below and above the CMC. The micelles of MeO-PEGO-Succ-RSV were formed spontaneously after dispersing in water.

[7] = Stability of resveratrol-polymer conjugates in rat plasma; assay type: in vitro ADME; details: 37°C
Description: The MeO-PEGN-Succ-RSV, 2 kDa, 20 kDa and MeO-PEGO-Succ-RSV 2 kDa (MW quoted in the paper is the size of polymer only. Mw for RSV is 228 Da) at the 10 mg/mL were incubated in plasma at 37°C. […] Aliquots of plasma (0.1 mL) were withdrawn at regular intervals and mixed with acetonitrile (0.9 mL). The mixtures were centrifuged at 10,000 rpm for 5 minutes. The supernatant (0.25 mL) was diluted with water (0.25 mL) and analysed by HPLC [28]. All samples were protected against light during the experiments.

[8] = DPPH inhibition assay (in vitro antioxidant); assay type: biochemical; details: DPPH 1 x 10^-4M in methanol, 30 min, room temperature
Description: Final concentration of DPPH was maintained at 1 x 10^-4M. […] After 30 min incubation at room temperature, the absorbance of these solutions was determined at 518 nm using a Hewlett Packard 8452A, UV-VIS spectrophotometer (Waldbronn, Germany). […] The IC 50 values were determined from the plot of % DPPH remaining against concentration of RSV and its equivalent conjugates.

[9] = male, Wistar, rat, plasma, mean ± SD

Oc1ccc(/C=C/c2cc(O)cc(O)c2)cc1 [Resveratrol, trans-Resveratrol]
Plasma concentration after two hours [1]: below the limit of detection
CL ([1]; mean ± SD): 335 ± 140 mL/min/kg
AUC(0-inf) [1, 9]: 2.4 ± 0.7 µM·h
MRT [1, 9]: 1.3 ± 1 h
Vd ([1]; male, Wistar, rat, plasma, mean ± SD, read-out: Vss): 26.8 ± 19.1 L/kg
half-life ([1]; male, Wistar, rat, plasma, mean ± SD, read-out: t½ (converted)): 1.4 ± 0.9 h
clearance ([1]; male, Wistar, rat, plasma, iv, mean ± SD): 333 mL/min/kg
Time within which almost all was metabolized [2]: ≤ 10 min
CL (previous reports) [3]: 183 to 317 mL/min/kg
t½ (previous reports) [3]: 1.3 h

CN(C)c1ccc(/N=N/c2ccccc2)cc1 [dimethyl yellow]
Aqueous solubility [4]: 13 µg/mL

MeO-PEG succinyl ester resveratrol [MeO-PEGO-Succ-RSV 2 kDa]
% Conjugate Remaining at 24 hr pH 7.4 [5]: ~65%
Behaviour in aqueous solution [6]: self-aggregated into polymeric micelles
Plasma t1/2 ([7]; rat plasma in vitro): <5 min
Intact conjugate detected by HPLC at initial time point ([7]; rat plasma, initial time point of 0 h): almost no intact polymer conjugate was detected

α-methoxy poly(ethylene glycol)-co-polylactide succinyl ester resveratrol [MeO-PEG-PLAO-Succ-RSV 2 kDa]
IC 50 DPPH inhibition [8]: similar

α-methoxy-ω-carboxylic acid poly(ethylene glycol) succinylamide resveratrol [MeO-PEGN-Succ-RSV 2 kDa]
IC 50 DPPH inhibition [8]: similar
